Among the data in BindingDB's records for PubMed 37122539 (Virginia Tech, 2023) are IC50 values, retold here.

The subject of this experiment is Enterococcus faecalis. The experiment in a line: Antibacterial activity against Enterococcus faecalis ATCC 29212 incubated for 16 hrs by broth microdilution method. (Broth dilution looks for growth in wells or tubes with falling amounts of substance.)

Each structure is given as a SMILES string. ≈ marks a conversion by molar mass, not a printed value.

Regarding `COC(=O)[C@H]1O[C@@H](n2ccc(N)nc2=O)C=C[C@@H]1NC(=O)C[C@@H](N)CCN(C)C(=N)N`, the IC50 (usually the point on the concentration scale where inhibition reaches its midpoint) was 9.2 µg/mL (≈ 21.1 µM).
The same measure for `CN(CC[C@H](N)CC(=O)N[C@H]1C=C[C@H](n2ccc(N)nc2=O)O[C@@H]1C(=O)OCc1ccccc1)C(=N)N`: 15 µg/mL (≈ 29.3 µM).
For `CCOC(=O)[C@H]1O[C@@H](n2ccc(N)nc2=O)C=C[C@@H]1NC(=O)C[C@@H](N)CCN(C)C(=N)N` the value was 9.9 µg/mL (≈ 22 µM).
Consider `CCCCOC(=O)[C@H]1O[C@@H](n2ccc(N)nc2=O)C=C[C@@H]1NC(=O)C[C@@H](N)CCN(C)C(=N)N`, for which the 50% inhibitory concentration (IC50) was determined as 16 µg/mL (≈ 33.4 µM).
The same measure for `CCCOC(=O)[C@H]1O[C@@H](n2ccc(N)nc2=O)C=C[C@@H]1NC(=O)C[C@@H](N)CCN(C)C(=N)N`: 11 µg/mL (≈ 23.7 µM).
The molecule `CN(CC[C@H](N)CC(=O)N[C@H]1C=C[C@H](n2ccc(N)nc2=O)O[C@@H]1C(N)=O)C(=N)N` showed an IC50 of 13 µg/mL (≈ 30.8 µM).
As to `CN(CC[C@H](N)CC(=O)N[C@H]1C=C[C@H](n2ccc(N)nc2=O)O[C@@H]1C(=O)O)C(=N)N`, half-maximal inhibition (IC50) was put at 53 µg/mL (≈ 125 µM).
For `C#CCCCOC(=O)[C@H]1O[C@@H](n2ccc(N)nc2=O)C=C[C@@H]1NC(=O)C[C@@H](N)CCN(C)C(=N)N` the value was 12 µg/mL (≈ 24.6 µM); for `CCCCCCOC(=O)[C@H]1O[C@@H](n2ccc(N)nc2=O)C=C[C@@H]1NC(=O)C[C@@H](N)CCN(C)C(=N)N`, 11 µg/mL (≈ 21.7 µM).
The same measure for `CN(CC[C@H](N)CC(=O)N[C@H]1C=C[C@H](n2ccc(N)nc2=O)O[C@@H]1C(=O)OCCc1ccccc1)C(=N)N`: 6.9 µg/mL (≈ 13.1 µM).
